What was measured:
Assay type in all cases: cell-based
human TASK-3 [1] = molecular target: T1, human TASK-3 (Homo sapiens (Human), UniProt Q9NPC2); assay: Inhibition of recombinant TASK-3 in stably transfected CHO cells (voltage-sensitive dye, 40 mM KCl depolarization); settings: 40 mM potassium chloride
Procedure: (§1) B-2. Inhibition of Recombinant TASK-1 and TASK-3 In Vitro
(§2) The investigations on the inhibition of the recombinant TASK-1 and TASK-3 channels were conducted using stably transfected CHO cells. The compounds according to the invention were tested in this case by application of 40 mM potassium chloride in the presence of a voltage-sensitive dye according to the methods described in detail in the following references [Whiteaker et al., Validation of FLIPR membrane potential dye for high-throughput screening of potassium channel modulators, J. Biomol. Screen. 6 (5), 305-312 (2001); Molecular Devices FLIPR Application Note: Measuring membrane potential using the FLIPR® membrane potential assay kit on Fluorometric Imaging Plate Reader (FLIPR®) systems, http://www.moleculardevices.com/reagents-supplies/assay-kits/ion-channels/flipr-membrane-potential-assay-kits]. The activity of the test substances was determined as their ability to inhibit a depolarization induced in the recombinant cells by 40 mM potassium chloride. The concentration which can block half of this depolarization is referred to as IC50.

human TASK-1 [2] = molecular target: T2, human TASK-1 (Homo sapiens (Human), UniProt O14649); assay: Inhibition of recombinant TASK-1 in stably transfected CHO cells (voltage-sensitive dye, 40 mM KCl depolarization); settings: 40 mM potassium chloride
Procedure: as §1, §2

human TASK-1 [3] = molecular target: T2, human TASK-1; assay: Two-electrode voltage clamp of human TASK-1 channels expressed in Xenopus laevis oocytes
Procedure: (§3) B-1. In Vitro Electrophysiological Analysis of the Human TASK-1 and TASK-3 Channels Via Two-Electrode Voltage Clamp Technique in Xenopus laevis Oocytes
(§4) Xenopus laevis oocytes were selected as described elsewhere by way of illustration [Decher et al., FEBS Lett. 492, 84-89 (2001)]. Subsequently, the oocytes were injected with 0.5-5 ng of a cRNA solution coding for TASK-1 or TASK-3. For the electrophysiological analysis of the channel proteins expressed in the oocytes, the two-electrode voltage clamp technique [Stiihmer, Methods Enzymol. 207, 319-339 (1992)] was used. The measurements were conducted as described [Decher et al., FEBS Lett. 492, 84-89 (2001)] at room temperature (21-22° C.) using a Turbo TEC 10CD amplifier (NPI), recorded at 2 kHz and filtered with 0.4 kHz. Substance administration was performed using a gravitation-driven perfusion system. Here, the oocyte is located in a measuring chamber and exposed to the solution stream of 10 ml/min. The level in the measuring chamber is monitored and regulated by sucking off the solution using a peristaltic pump.

human TASK-3 [4] = molecular target: T1, human TASK-3; assay: Two-electrode voltage clamp of human TASK-3 channels expressed in Xenopus laevis oocytes
Procedure: as §3, §4

T1 sequence (Q9NPC2 whole entry): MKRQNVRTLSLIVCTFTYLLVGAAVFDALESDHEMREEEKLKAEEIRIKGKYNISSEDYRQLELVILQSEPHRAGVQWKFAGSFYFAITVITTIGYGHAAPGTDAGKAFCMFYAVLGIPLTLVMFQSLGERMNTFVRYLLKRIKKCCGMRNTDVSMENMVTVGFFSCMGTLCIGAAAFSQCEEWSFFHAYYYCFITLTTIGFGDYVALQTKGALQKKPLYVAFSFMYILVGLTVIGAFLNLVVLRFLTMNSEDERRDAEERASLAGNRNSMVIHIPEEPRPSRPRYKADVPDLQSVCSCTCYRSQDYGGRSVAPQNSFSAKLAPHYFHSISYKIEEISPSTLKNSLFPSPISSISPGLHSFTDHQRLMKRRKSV
T2 sequence (O14649 whole entry): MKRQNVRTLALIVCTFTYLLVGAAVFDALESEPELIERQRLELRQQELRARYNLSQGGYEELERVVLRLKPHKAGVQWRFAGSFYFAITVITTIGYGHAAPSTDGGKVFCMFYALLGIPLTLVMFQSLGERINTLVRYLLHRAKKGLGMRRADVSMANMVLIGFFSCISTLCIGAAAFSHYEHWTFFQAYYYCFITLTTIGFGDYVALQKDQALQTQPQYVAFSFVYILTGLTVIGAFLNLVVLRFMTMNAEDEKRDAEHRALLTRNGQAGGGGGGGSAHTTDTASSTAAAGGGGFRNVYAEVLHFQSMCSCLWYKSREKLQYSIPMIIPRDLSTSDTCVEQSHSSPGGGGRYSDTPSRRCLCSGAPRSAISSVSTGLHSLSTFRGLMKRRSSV

| Compound | IC50 (human TASK-3 [1]) [nM] | IC50 (human TASK-1 [2]) [nM] | other results |
| --- | --- | --- | --- |
| CC(C)(C)OC(=O)N1CC2CN(Cc3c(-c4ccc(Cl)cc4)nc4ccccn34)CC2C1 (centres unmarked) [Example 1, tert-butyl 5-{[2-(4-chlorophenyl)imidazo [1,2-a]pyridin-3-yl]methyl}hexahydropyrrolo[3,4-c]pyrrole-2(1H)-carboxylate] | 6100 | 2410 |  |
| CC(C)(C)OC(=O)N1CC2CN(Cc3c(-c4ccc(Br)cc4)nc4ccccn34)CC2C1 (centres unmarked) [Example 2] | 5400 | 1730 |  |
| CC(C)c1ccc(-c2nc3ccccn3c2CN2CC3CN(C(=O)OC(C)(C)C)CC3C2)cc1 (centres unmarked) [Example 3] | 7400 | 2500 |  |
| COc1cccc(C(=O)N2CC3CN(Cc4c(-c5ccc(Cl)cc5)nc5ccccn45)CC3C2)n1 (centres unmarked) [Example 4, [5-{[2-(4-Chlorophenyl)imidazo[1,2-a]pyridin-3-yl]methyl}hexahydropyrrolo[3,4-c]pyrrol-2(1H)-yl](6-methoxypyridin-2-yl)methanone] | 2300 | 947 | IC50 (human TASK-1 [3]): 59.9 ± 16.2 nM; IC50 (human TASK-3 [4]): 256 ± 48.8 nM |
| O=C(C1CCCC1)N1CC2CN(Cc3c(-c4ccc(Br)cc4)nc4ccccn34)CC2C1 (centres unmarked) [Example 5, [5-{[2-(4-Bromophenyl)imidazo[1,2-a]pyridin-3-yl]methyl}hexahydropyrrolo[3,4-c]pyrrol-2(1H)-yl](cyclopentyl)methanone] | 1600 | 1130 |  |
| O=C(c1ccccc1F)N1CC2CN(Cc3c(-c4ccc(Br)cc4)nc4ccccn34)CC2C1 (centres unmarked) [Example 6] | 1300 | 683 |  |
| O=C(c1cc(F)ccc1Cl)N1CC2CN(Cc3c(-c4ccc(Br)cc4)nc4ccccn34)CC2C1 (centres unmarked) [Example 7] | 4300 | 787 |  |
| O=C(C1CCCCC1)N1CC2CN(Cc3c(-c4ccc(Br)cc4)nc4ccccn34)CC2C1 (centres unmarked) [Example 8] | 810 | 1360 |  |
| O=C(C1CCC1)N1CC2CN(Cc3c(-c4ccc(Br)cc4)nc4ccccn34)CC2C1 (centres unmarked) [Example 9] | 660 | 749 |  |
| COc1ccccc1C(=O)N1CC2CN(Cc3c(-c4ccc(Br)cc4)nc4ccccn34)CC2C1 (centres unmarked) [Example 11] | 2500 | 1210 |  |
| COc1ccc(F)cc1C(=O)N1CC2CN(Cc3c(-c4ccc(Br)cc4)nc4ccccn34)CC2C1 (centres unmarked) [Example 12] | 960 | 1200 |  |
| Cc1ccccc1C(=O)N1CC2CN(Cc3c(-c4ccc(Br)cc4)nc4ccccn34)CC2C1 (centres unmarked) [Example 13] | 1300 | 712 |  |
| O=C(c1ccccc1F)N1CC2CN(Cc3c(-c4ccc(Cl)cc4)nc4ccccn34)CC2C1 (centres unmarked) [Example 14] | 3400 | 1060 |  |
| O=C(c1cc(F)ccc1Cl)N1CC2CN(Cc3c(-c4ccc(Cl)cc4)nc4ccccn34)CC2C1 (centres unmarked) [Example 15] | 2900 | 1000 |  |
| O=C(C1CCCCC1)N1CC2CN(Cc3c(-c4ccc(Cl)cc4)nc4ccccn34)CC2C1 (centres unmarked) [Example 16] | 1100 | 1940 |  |
| COc1ccccc1C(=O)N1CC2CN(Cc3c(-c4ccc(Cl)cc4)nc4ccccn34)CC2C1 (centres unmarked) [Example 18] | 4900 | 1680 |  |
| COc1ccc(F)cc1C(=O)N1CC2CN(Cc3c(-c4ccc(Cl)cc4)nc4ccccn34)CC2C1 (centres unmarked) [Example 19] | 1500 | 1250 |  |
| Cc1ccccc1C(=O)N1CC2CN(Cc3c(-c4ccc(Cl)cc4)nc4ccccn34)CC2C1 (centres unmarked) [Example 20] | 2500 | 1020 |  |
| Cc1ccc(F)cc1C(=O)N1CC2CN(Cc3c(-c4ccc(Cl)cc4)nc4ccccn34)CC2C1 (centres unmarked) [Example 21] | 230 | 1250 |  |
| O=C(c1cccc(OC(F)(F)F)c1)N1CC2CN(Cc3c(-c4ccc(Cl)cc4)nc4ccccn34)CC2C1 (centres unmarked) [Example 22] | 320 | 1460 |  |
| O=C(c1cccc(C(F)(F)F)c1)N1CC2CN(Cc3c(-c4ccc(Cl)cc4)nc4ccccn34)CC2C1 (centres unmarked) [Example 23] | 100 | 728 |  |
| O=C(Oc1cccc(C(F)(F)F)c1)N1CC2CN(Cc3c(-c4ccc(Br)cc4)nc4ccccn34)CC2C1 (centres unmarked) [Example 36] | 450 | 180 |  |
| O=C(c1ccccc1)N1CC2CN(Cc3c(-c4ccc(Cl)cc4)nc4ccc(-c5ccccc5)cn34)CC2C1 (centres unmarked) [comparative compound, reference compound] |  |  | IC50 (human TASK-1 [3]): > 10000 nM; inhibition at 1 µM (human TASK-1 [3]; 1 μM): 11.4 ± 1.5%; inhibition at 10 µM (human TASK-1 [3]; 10 μM): 37.2 ± 7.5%; TASK-3 IC50 (human TASK-3 [4]): inactive; inhibition at 1 µM (human TASK-3 [4]; 1 μM): 5.6 ± 1.3%; inhibition at 10 µM (human TASK-3 [4]; 10 μM): 8.9 ± 0.9% |

Further lines, with some results ahead:

| IC50 (human TASK-3 [1]) [nM] | IC50 (human TASK-1 [2]) [nM] | Compound | other results |
| --- | --- | --- | --- |
| 800 | 330 | COc1cccc(C(=O)N2CC3CN(Cc4c(-c5ccc(Br)cc5)nc5ccccn45)CC3C2)n1 (centres unmarked) [Example 24] |  |
| 310 | 220 | CC(C)c1ccc(-c2nc3ccccn3c2CN2CC3CN(C(=O)c4ccccc4F)CC3C2)cc1 (centres unmarked) [Example 26] |  |
| 170 | 170 | COc1cccc(C(=O)N2CC3CN(Cc4c(-c5ccc(C(C)C)cc5)nc5ccccn45)CC3C2)c1 (centres unmarked) [Example 27] |  |
| 190 | 300 | CC(C)c1ccc(-c2nc3ccccn3c2CN2CC3CN(C(=O)C4CCCC4)CC3C2)cc1 (centres unmarked) [Example 28] |  |
| 2100 | 920 | CN(C(=O)N1CC2CN(Cc3c(-c4ccc(Br)cc4)nc4ccccn34)CC2C1)c1ccccc1 (centres unmarked) [Example 29, 5-{[2-(4-Bromophenyl)imidazo[1,2-a]pyridin-3-yl]methyl}-N-methyl-N-phenylhexahydropyrrolo[3,4-c]pyrrole-2(1H)-carboxamide] |  |
| 1200 | 480 | O=C(N1CC2CN(Cc3c(-c4ccc(Br)cc4)nc4ccccn34)CC2C1)N1CCCc2ccccc21 (centres unmarked) [Example 30] |  |
| 1200 | 1100 | CC(C)COC(=O)N1CC2CN(Cc3c(-c4ccc(Br)cc4)nc4ccccn34)CC2C1 (centres unmarked) [Example 32] |  |
| 4400 | 460 | O=C(OCc1ccccc1)N1CC2CN(Cc3c(-c4ccc(Br)cc4)nc4ccccn34)CC2C1 (centres unmarked) [Example 33] |  |
| 3300 | 500 | O=C(OC1CCCC1)N1CC2CN(Cc3c(-c4ccc(Br)cc4)nc4ccccn34)CC2C1 (centres unmarked) [Example 34] |  |
| 1700 | 700 | CC(C)OC(=O)N1CC2CN(Cc3c(-c4ccc(Br)cc4)nc4ccccn34)CC2C1 (centres unmarked) [Example 35] |  |
| 1800 | 600 | O=C(OCCF)N1CC2CN(Cc3c(-c4ccc(Br)cc4)nc4ccccn34)CC2C1 (centres unmarked) [Example 37] |  |
| 1900 | 1500 | O=C(Nc1ccc(F)cc1F)N1CC2CN(Cc3c(-c4ccc(Br)cc4)nc4ccccn34)CC2C1 (centres unmarked) [Example 38, 5-{[2-(4-Bromophenyl)imidazo[1,2-a]pyridin-3-yl]methyl}-N-(2,4-difluorophenyl)hexahydropyrrolo[3,4-c]pyrrole-2(1H)-carboxamide] |  |
| 2900 | 580 | O=C(Nc1ccccc1F)N1CC2CN(Cc3c(-c4ccc(Br)cc4)nc4ccccn34)CC2C1 (centres unmarked) [Example 41] |  |
| 2000 | 1700 | O=C(Nc1ccc(Cl)c(C(F)(F)F)c1)N1CC2CN(Cc3c(-c4ccc(Br)cc4)nc4ccccn34)CC2C1 (centres unmarked) [Example 43] |  |
| 2000 | 700 | O=C(Nc1cc(C(F)(F)F)ccc1Cl)N1CC2CN(Cc3c(-c4ccc(Br)cc4)nc4ccccn34)CC2C1 (centres unmarked) [Example 44] |  |
| 5800 | 2300 | O=C(NC1CCCCC1)N1CC2CN(Cc3c(-c4ccc(Br)cc4)nc4ccccn34)CC2C1 (centres unmarked) [Example 45] |  |
| 2200 | 460 | CC(NC(=O)N1CC2CN(Cc3c(-c4ccc(Br)cc4)nc4ccccn34)CC2C1)c1ccccc1 (centres unmarked) [Example 46] |  |
| 240 | 1000 | O=C(Nc1ccc(F)cc1)N1CC2CN(Cc3c(-c4ccc(Br)cc4)nc4ccccn34)CC2C1 (centres unmarked) [Example 47] |  |
| 79 | 78 | COc1ccc(F)c(C(=O)N2CC3CN(Cc4c(-c5ccc(C(C)C)cc5)nc5ccccn45)CC3C2)n1 (centres unmarked) [Example 48] |  |
| 4.6 | 94 | COc1ccc(C)c(C(=O)N2CC3CN(Cc4c(-c5ccc(Cl)cc5)nc5ccccn45)CC3C2)n1 (centres unmarked) [Example 49] |  |
| 110 | 1100 | COc1ccc(F)c(C(=O)N2CC3CN(Cc4c(-c5ccc(Cl)cc5)nc5ccccn45)CC3C2)n1 (centres unmarked) [Example 50] |  |
| 80 | 1400 | COc1ccc(Cl)c(C(=O)N2CC3CN(Cc4c(-c5ccc(Cl)cc5)nc5ccccn45)CC3C2)n1 (centres unmarked) [Example 51] |  |
| 2400 | 15000 | O=C(c1ccccc1)N1CC2CN(Cc3c(-c4ccc(Cl)cc4)nc4ccc(-c5ccccc5)cn34)CC2C1 (centres unmarked) [Example 160 in WO 2014/187922, reference compound] |  |

Source: patent US10414765B2, “Substituted perhydropyrrolo[3,4-c]pyrrole derivatives and the use of same” (BAYER PHARMA AKTIENGESELLSCHAFT, priority 2015, dated 2019)
